Measurements from publication PMC12446003, “Pharmacological characterization of linaprazan glurate (X842), a novel potassium-competitive acid blocker, in vitro and in vivo” (Frontiers in Pharmacology, 2025).
pIC50: −log10 of the molar value. Where two headings read alike, the source gives them in different places.

How the values were obtained:
Gastric H+/K+-ATPase = target: T1, Gastric H+/K+-ATPase (Oryctolagus cuniculus, UniProt P27112); assay: Inhibition of H+/K+-ATPase activity (Malachite Green Pi assay); format: biochemical, rabbit
T1 construct: Gastric H^+/K^+-ATPase was prepared from rabbit glands; from tissue; host or cells: rabbit gastric glands
T1 sequence (P27112 whole entry): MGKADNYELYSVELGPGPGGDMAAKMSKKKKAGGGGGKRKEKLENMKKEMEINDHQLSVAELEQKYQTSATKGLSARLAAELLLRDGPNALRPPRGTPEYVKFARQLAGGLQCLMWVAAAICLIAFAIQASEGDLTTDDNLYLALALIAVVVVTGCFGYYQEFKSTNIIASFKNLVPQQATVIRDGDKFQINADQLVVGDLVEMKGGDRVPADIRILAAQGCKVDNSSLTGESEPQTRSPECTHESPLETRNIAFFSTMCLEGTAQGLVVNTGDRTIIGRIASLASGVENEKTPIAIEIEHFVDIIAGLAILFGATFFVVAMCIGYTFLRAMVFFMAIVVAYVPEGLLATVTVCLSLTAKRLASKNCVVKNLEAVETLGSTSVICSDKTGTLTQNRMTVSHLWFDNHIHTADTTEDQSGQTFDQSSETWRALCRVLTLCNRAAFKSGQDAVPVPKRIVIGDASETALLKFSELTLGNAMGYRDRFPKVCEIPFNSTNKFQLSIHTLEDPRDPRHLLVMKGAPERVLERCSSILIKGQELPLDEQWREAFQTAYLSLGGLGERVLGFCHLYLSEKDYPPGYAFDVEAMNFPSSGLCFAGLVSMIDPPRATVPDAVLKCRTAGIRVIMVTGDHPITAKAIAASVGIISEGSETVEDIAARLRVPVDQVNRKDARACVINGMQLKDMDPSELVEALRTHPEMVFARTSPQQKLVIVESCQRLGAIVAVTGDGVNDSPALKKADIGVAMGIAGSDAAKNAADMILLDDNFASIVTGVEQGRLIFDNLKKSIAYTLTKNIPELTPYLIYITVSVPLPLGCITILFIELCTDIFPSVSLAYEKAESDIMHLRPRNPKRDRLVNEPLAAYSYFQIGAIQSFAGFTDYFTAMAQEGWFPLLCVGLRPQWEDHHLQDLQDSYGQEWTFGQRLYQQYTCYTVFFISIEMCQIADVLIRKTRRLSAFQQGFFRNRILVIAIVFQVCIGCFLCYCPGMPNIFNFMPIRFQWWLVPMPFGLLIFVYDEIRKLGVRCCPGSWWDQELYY
T1 sequence (P18597 whole entry partner): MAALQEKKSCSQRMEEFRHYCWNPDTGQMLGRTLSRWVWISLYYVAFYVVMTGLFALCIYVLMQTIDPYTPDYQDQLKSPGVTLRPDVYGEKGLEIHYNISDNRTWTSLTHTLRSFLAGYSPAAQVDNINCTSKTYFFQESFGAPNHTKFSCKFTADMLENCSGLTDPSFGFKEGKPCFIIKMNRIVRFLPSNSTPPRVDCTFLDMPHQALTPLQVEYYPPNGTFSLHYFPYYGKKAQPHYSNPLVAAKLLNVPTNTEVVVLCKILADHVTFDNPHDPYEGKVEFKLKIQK
Experimental: The H^+/K^+-ATPase inhibition reaction was performed in buffer (50 mM Tris-HCl, 5 mM magnesium chloride, 10 μM valinomycin, pH 6.5) with or without 20 mM potassium chloride (KCl), and inorganic phosphate (Pi) was detected using Malachite Green solution, made from 0.1% malachite green, 1.5% hexaammonium molybdate, and 0.2% Tween-20 in a ratio of 100:25:2 ([Skou, 1982]; [Feng et al., 2011]). Gastric H^+/K^+-ATPase was prepared from rabbit glands, as described previously ([Kondo et al., 2012]; [Arikawa et al., 2012]). The reaction occurred in a 96-well plate with a total volume of 50 µL/well, including buffer, enzyme, ATP, and drug. After 30 min at 37 °C for enzyme stability, ATP was added at 0.2 mM to start the reaction, which was optimized from the titration experiments. The reaction lasted 20 min at 37 °C, followed by the addition of Malachite Green for the colorimetric assay. The enzyme control wells contained the full enzyme system, while the buffer control wells contained only buffer to correct for background values. Absorbance was measured at 620 nm using a plate reader (SpectraMax M5). The inhibition rate was calculated using the following formula, accounting for the enzyme activity in the presence and absence of K^+: Inhibition Rate %=ODwith K+and enzyme,without drug−ODwith K+and enzyme,with drug /ODwith K+and enzyme,without drug−ODwithout K+and enzyme,without drug×100 where “OD with K^+ and enzyme, without drug” is the optical density measured at 620 nm in the presence of K^+ and enzyme, without the tested drug (enzyme control wells); “OD with K^+ and enzyme, with drug” is the optical density measured at 620 nm in the presence of K^+ and enzyme, with the tested drug; and “OD without K^+ and enzyme, without drug” is the optical density measured at 620 nm in the absence of K^+ and enzyme, without the tested drug (buffer control wells).

[1] = tested on: gastric acid secretion in pylorus-ligated rats; assay: Gastric acid inhibition in pylorus-ligated rats; format: in vivo; conditions: oral 2 mg/kg, pylorus-ligated rats, relative to vehicle
Experimental: The rats were fasted overnight with ad libitum access to water. Drugs and vehicle were administered orally to rats in a blinded manner. The pylorus was ligated under ether anesthesia within 1 h after drug and vehicle administration, and the abdomen was closed by suturing. At 4 h after pyloric ligation, the rats were sacrificed by CO2 asphyxiation, and the stomach was removed ([Hori et al., 2010]). The gastric contents were collected and centrifuged at 3,000 rpm for 10 min. The volume of each sample was measured, the gastric acid concentration was determined by acid-base titration, and the total acidity was calculated.

Structure (SMILES): CNCc1cc(-c2ccccc2F)n(S(=O)(=O)c2cccnc2)c1 [vonoprazan, 1-[5-(2-fluorophenyl)-1-(pyridin-3-ylsulfonyl)-1H-pyrrol-3-yl]-N-methylmethanamine]
- Inhibitory effect on H+/K+-ATPase in the absence of K+ (Gastric H+/K+-ATPase; absence of K+): No measurable inhibitory effect
- pIC50 (Gastric H+/K+-ATPase; in the presence of K+ (20 mM KCl), pH 6.5, read-out: IC50, H+/K+-ATPase inhibition): 7.77
- pIC50 (Gastric H+/K+-ATPase; in the presence of potassium ions, rabbit gastric glands, read-out: IC50 (Figure 7A)): 7.77
- Total acidity inhibitory rate (%) [1]: 47%
